According to patent publication US10081632B2, “Substituted tetrahydropyrido[3′,2′:4,5]pyrrolo[1,2-α]pyrazine-2-carboxamides as RSK inhibitors” (Phoenix Molecular Designs, priority 2016, dated 2018):

Key:
SUM149 cells = assay: Monolayer growth inhibition, crystal violet assay; type: cell-based; settings: Homo sapiens, SUM149, SUM149 (TNBC, BRCA Mutant), 5 days, single dose on day 1
From the text: (§1) In all instances a single dose was given on day 1 of the experiment.

4T1 cells = assay: Monolayer growth inhibition, crystal violet assay; type: cell-based; settings: Mus musculus, 4T1, 4T1 (TNBC), 5 days, single dose on day 1
From the text: as §1

HCC1143 cells = assay: Monolayer growth inhibition, crystal violet assay; type: cell-based; settings: Homo sapiens, HCC1143, HCC1143 (TNBC), 5 days, single dose on day 1
From the text: as §1

RSK2 = RSK2 (Homo sapiens (Human), UniProt P51812); assay: Radioisotope kinase assay (SignalChem), RSK2; type: biochemical; settings: 33P-ATP, 30° C., 15 minutes
Procedure: The assay conditions for the RSK2 kinase target were optimized to yield acceptable enzymatic activity. In addition, the assays were optimized to give high signal-to-noise ratio.
Radioisotope assays (SignalChem) were performed for the evaluation of the kinase target profiling and all assays were performed in a designated radioactive working area. The kinase targets were RSK1, RSK2, RSK3, RSK4 and MK2.
The assay was initiated by the addition of ^33P-ATP and the reaction mixture incubated at 30° C. for 15 minutes. After the incubation period, the assay was terminated by spotting 10 μL of the reaction mixture onto Multiscreen phosphocellulose P81 plate. The Multiscreen phosphocellulose P81 plate was washed 3 times for approximately 15 minutes each in a 1% phosphoric acid solution. The radioactivity on the P81 plate was counted in the presence of scintillation fluid in a Trilux scintillation counter.
Blank controls were set up for each target kinase which included all the assay components except the addition of the appropriate substrate (which was replaced with equal volume of assay dilution buffer). The corrected activity for each target kinase was determined by removing the blank control value.

Sequence of RSK2 (P51812 whole entry): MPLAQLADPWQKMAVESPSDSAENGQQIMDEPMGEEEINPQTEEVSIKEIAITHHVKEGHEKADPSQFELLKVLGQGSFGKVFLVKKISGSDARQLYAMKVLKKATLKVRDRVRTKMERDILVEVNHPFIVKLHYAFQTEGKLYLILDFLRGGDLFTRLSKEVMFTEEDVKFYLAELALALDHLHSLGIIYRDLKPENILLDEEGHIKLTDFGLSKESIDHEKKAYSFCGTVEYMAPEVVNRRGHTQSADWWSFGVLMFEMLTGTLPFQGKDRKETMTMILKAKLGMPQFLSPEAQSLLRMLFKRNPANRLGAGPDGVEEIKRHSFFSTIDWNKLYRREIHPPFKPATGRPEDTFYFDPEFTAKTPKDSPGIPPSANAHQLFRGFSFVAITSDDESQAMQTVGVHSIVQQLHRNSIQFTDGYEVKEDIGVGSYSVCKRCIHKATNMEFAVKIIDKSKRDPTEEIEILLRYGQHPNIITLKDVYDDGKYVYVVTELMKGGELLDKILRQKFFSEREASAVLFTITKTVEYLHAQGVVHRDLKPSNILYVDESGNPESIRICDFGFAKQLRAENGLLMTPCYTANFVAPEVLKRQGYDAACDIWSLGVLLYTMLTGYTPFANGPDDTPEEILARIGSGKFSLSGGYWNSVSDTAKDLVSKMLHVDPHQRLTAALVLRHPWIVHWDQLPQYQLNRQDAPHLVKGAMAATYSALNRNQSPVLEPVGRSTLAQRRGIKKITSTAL

C[C@@H]1CNC(=O)c2cc3ccc(C(=O)Nc4cnn(Cc5ccc(N)cc5)c4)nc3n21 [Compound 18, (R)—N-(1-(4-aminobenzyl)-1H-pyrazol-4-yl)-9-methyl-6-oxo-6,7,8,9-tetrahydropyrido[3′,2′:4,5]pyrrolo[1,2-a]pyrazine-2-carboxamide]
IC50 (SUM149 cells): 2400 ± 700 nM
IC50 (4T1 cells): 5.3 ± 1.1 µM
IC50 (HCC1143 cells): 2400 ± 800 nM
IC50 (RSK2): 20 nM
